Measured values published in patent publication US9999620B2, “CaMKK-β as a target for treating cancer” (Duke University, priority 2010, dated 2018).

What was measured:
Type in all cases: cell-based, human
[1] = system: LNCaP cells; test: Cell proliferation assay (FluoReporter Blue DNA content); details: +/-1 nM R1881 and +/-30 mM STO-609 on d 3, d 5, d 7, read on d 10
Description: (§1) FIG. 7. CaMKKβ activity in the androgen-mediated migration and invasion of prostate cancer cells. A, LNCaP cells were plated in 96-well plates and grown for 3 d. […] On d 10, cells were lysed and the relative number of cells was measured with the fluorescent DNA binding dye FluoReporter Blue. Each sample was performed in triplicate, and results from a representative experiment are shown. […] Cells were then dissociated and reseeded into the top chamber for a Boyden migration or Matrigel extracellular matrix invasion assay. Fresh medium with the corresponding treatments was added to the top and bottom chambers while either no chemoattractant or 5% FBS (serum) was added to the bottom chamber. After 16 h, migrated cells were fixed, stained and counted in three different microscopic fields and added together. […] C top, LNCaP cells were transfected with indicated siRNAs. […] D right, LNCaP cells stably expressing either GAL4 (control) or CaMKKβ were subjected to a migration assay as described in B using +/−5% FBS as chemoattractant. The results are expressed as mean+SE (n=3). *, significant changes from LNCaP-GAL4 cells. D left, western blot confirming CaMKKβ […]expression. […] Proliferation assays were performed as previously described (12) by measuring the cellular DNA content using the FluoReporter Blue Fluorometric double-stranded DNA Quantitation Kit (Invitrogen) as per the manufacturer's protocol.

[2] = system: AMPK phosphorylation (T172) by CaMKKβ; test: Western blot of phospho-AMPK; details: STO-609 pretreatment
Description: A, LNCaP cells were pretreated for 1 h+/−30 mM STO-609 prior to overnight treatment+/−10 nM R1881. Cell lysates were then subjected to western blot analysis and subsequent densitometry (right). CaMKKβ levels were normalized to GAPDH. Phospho-CaMKI (p-CaMKI) levels were normalized to total CaMKI. Phospho-AMPK (p-AMPK) levels were normalized to total AMPK. Results are expressed as fold induction/phosphorylation over double vehicle-treated cells+SE (n=3). *, significant changes from vehicle-treated cells. B, LNCaP cells stably expressing either GAL4 or CaMKKβ □were treated overnight+/−10 nM R1881. Cell lysates were then subjected as in A to western blot analysis and densitometry (right). Results are expressed as fold induction/phosphorylation over LNCaP-GAL4 vehicle-treated cells+SE (n=3). *, significant changes from LNCaP-GAL4 vehicle-treated cells. […]
A, VCaP cells were treated for 24 h+/−10 nM R1881. […] Results are expressed as fold induction/phosphorylation over vehicle-treated cells+SE (n=2). *, P<0.05 indicates significant changes from vehicle-treated cells. […]
Western blot analysis. […] For each sample, protein levels were determined by densitometry using the ImageJ software (NIH) and normalizing to indicated controls.

[3] = system: LNCaP cells; test: Boyden dual chamber migration assay; details: 1 h +/-30 mM STO-609, overnight +/-10 nM R1881, 16 h migration, 5% FBS chemoattractant
Description: as §1, with “+/-5%” for “+/−5%”, “[…]expression. FIG. 11. Androgen-mediated migration occurs through a CaMKKβ-AMPK-dependent pathway.” for “[…]expression.”, “Results are expressed” for “Proliferation assays were performed”, “fold induction/phosphorylation over double vehicle-treated cells+SE (n=3). *, significant changes from vehicle-treated cells. […] Results are expressed” for “previously described (12) by measuring the cellular DNA content using the FluoReporter Blue Fluorometric double-stranded DNA Quantitation Kit (Invitrogen)”, “fold induction/phosphorylation over LNCaP-GAL4 vehicle-treated cells+SE (n=3). *, significant changes from LNCaP-GAL4 vehicle-treated cells. […] The results are expressed as mean±SE (n=2). *, P<0.05 indicates significant changes from double vehicle-treated cells. ^#, P<0.05 indicates significant decreases from vehicle (no compound C)-treated cells. […] ACC is a direct target of AMPK and thus, was used as a readout of AMPK catalytic activity. […] Results are expressed as fold induction/phosphorylation over double vehicle-treated cells+SE (n=2). *, P<0.05 indicates significant changes from double vehicle-treated cells. […]” for “per the manufacturer's protocol.”

[4] = system: LNCaP cells; test: Matrigel extracellular matrix invasion assay; details: 1 h +/-30 mM STO-609, overnight +/-10 nM R1881
Description: FIG. 7. CaMKKβ activity in the androgen-mediated migration and invasion of prostate cancer cells. A, LNCaP cells were plated in 96-well plates and grown for 3 d. […] On d 10, cells were lysed and the relative number of cells was measured with the fluorescent DNA binding dye FluoReporter Blue. Each sample was performed in triplicate, and results from a representative experiment are shown. […] Cells were then dissociated and reseeded into the top chamber for a Boyden migration or Matrigel extracellular matrix invasion assay. Fresh medium with the corresponding treatments was added to the top and bottom chambers while either no chemoattractant or 5% FBS (serum) was added to the bottom chamber. After 16 h, migrated cells were fixed, stained and counted in three different microscopic fields and added together. […] C top, LNCaP cells were transfected with indicated siRNAs. […] D right, LNCaP cells stably expressing either GAL4 (control) or CaMKKβ were subjected to a migration assay as described in B using +/−5% FBS as chemoattractant. The results are expressed as mean+SE (n=3). *, significant changes from LNCaP-GAL4 cells. D left, western blot confirming CaMKKβ […]expression. Migration and invasion assays. Boyden dual chamber migration assays were performed as previously described (4). […]

SMILES: O=C(O)c1ccc2c3c1cccc3c(=O)n1c3ccccc3nc21 [STO-609]
- effect on cell number (androgen-mediated cellular growth) [1]: no significant effect
- androgen-increased phosphorylation of AMPK (T172) ([2]; LNCaP, 10 nM R1881): reversed
- androgen-increased phosphorylation of AMPK (T172) ([2]; VCaP): reversed
- androgen-mediated migration [3]: blocked the androgen-mediated migration
- androgen-mediated invasion through Matrigel extracellular matrix [4]: inhibited androgen-mediated invasion
